Key:
[1] = xn = mol fraction of the nth substance listed; conditions: 101 kPa, Liquid
[2] = 101 kPa, Liquid

CCCCCO [pentan-1-ol] + C1CCCC1
[1], x2 = 0
Conditions | mass density [kg/m3]
298.15 K | 811.037
308.15 K | 803.683

C1CCCC1 [cyclopentane] + CCCO
mass density [kg/m3], [1]
Conditions | 298.15 K | 308.15 K
x1 = 0.0553 | 795.275 | 786.98
x1 = 0.1627 | 786.754 | 778.045
x1 = 0.2341 | 781.37 | 772.538
x1 = 0.3137 | 775.778 | 766.718
x1 = 0.4691 | 764.862 | 755.363
x1 = 0.5666 | 758.623 | 748.897
x1 = 0.6338 | 754.486 | 744.566
x1 = 0.7688 | 746.451 | 737.144
x1 = 0.8446 | 742.132 | 733.21
x1 = 0.9167 | 738.181 | 729.51
x1 = 1 | 733.634 | 726.571

CCCCCCCO [heptan-1-ol] + C1CCCC1
[1], x2 = 0
Conditions | mass density [kg/m3]
298.15 K | 818.813
308.15 K | 811.73

CCCCCO [pentan-1-ol]
[2]
Conditions | mass density [kg/m3]
298.15 K | 811.037
308.15 K | 803.683

CCCO [propan-1-ol] + C1CCCC1
[1], x2 = 0
Conditions | mass density [kg/m3]
298.15 K | 799.813
308.15 K | 791.692

CCCCCCCO [heptan-1-ol]
[2]
Conditions | mass density [kg/m3]
298.15 K | 818.813
308.15 K | 811.73

C1CCCC1 [cyclopentane] + CCCCCO
mass density [kg/m3], [1]
Conditions | 298.15 K | 308.15 K
x1 = 0.0155 | 810.22 | 802.763
x1 = 0.1886 | 799.34 | 791.417
x1 = 0.2742 | 793.439 | 785.673
x1 = 0.3746 | 786.395 | 778.336
x1 = 0.3884 | 785.467 | 777.389
x1 = 0.4798 | 779.082 | 770.553
x1 = 0.5738 | 771.559 | 763.458
x1 = 0.6868 | 762.096 | 754.298
x1 = 0.7543 | 756.486 | 748.638
x1 = 0.8131 | 751.07 | 743.306
x1 = 0.9079 | 742.377 | 735.151
x1 = 1 | 733.634 | 726.571

C1CCCC1 [cyclopentane] + CCCCCCCO
mass density [kg/m3], [1]
Conditions | 298.15 K | 308.15 K
x1 = 0.0632 | 815.837 | 808.629
x1 = 0.1965 | 808.334 | 800.856
x1 = 0.3173 | 800.287 | 792.895
x1 = 0.4244 | 793.064 | 785.675
x1 = 0.4606 | 790.282 | 782.889
x1 = 0.5084 | 786.531 | 779.091
x1 = 0.6664 | 772.628 | 764.753
x1 = 0.7675 | 762.185 | 754.805
x1 = 0.8534 | 752.769 | 745.466
x1 = 0.9644 | 739.018 | 731.663
x1 = 1 | 733.634 | 726.571

CCCO [propan-1-ol]
[2]
Conditions | mass density [kg/m3]
298.15 K | 799.813
308.15 K | 791.692

C1CCCC1 [cyclopentane]
[2]
Conditions | mass density [kg/m3]
298.15 K | 733.634
308.15 K | 726.571

Source: the NIST ThermoML archive (doi:10.1021/je800831d)
